This note sets out measurements from patent US20240116845A1, “INDENE COMPOUNDS, PHARMACEUTICAL COMPOSITIONS THEREOF, AND THEIR THERAPEUTIC APPLICATIONS” (NucMito Pharmaceuticals Co., Ltd., priority 2021, published 2024).

What all share (type): cell-based
The subject of assay [1] is MDA-MB-231 (breast cancer). Nature of the assay: Antiproliferative activity, CCK-8 cell viability. The following applies: Homo sapiens, 72 h, read-out: Inhibition of Cancerous Cells, MDA-MB-231; for inhibition at 3.3 µM: compound concentration of 3.3 μM; for inhibition at 10 µM: compound concentration of 10 μM; for inhibition at 30 µM: compound concentration of 30 μM. The method, boiled down: (§1)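 Cells in DMEM with 10% FBS were treated with compound at 3.3, 10 or 30 μM for 72 h at 37°C. Viability was read by CCK-8 absorbance at 450 nm and expressed relative to DMSO-treated cells. Growth inhibition was binned as ≥50%, 30–50% or <30%.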

Assay [2] concerns A549 (lung adenocarcinoma). Description: Antiproliferative activity, CCK-8 cell viability. The following applies: Homo sapiens, 72 h, read-out: Inhibition of Cancerous Cells, A549; for inhibition at 3.3 µM: compound concentration of 3.3 μM; for inhibition at 10 µM: compound concentration of 10 μM; for inhibition at 30 µM: compound concentration of 30 μM.
Another assay relates to HepG2 (liver cancer). Nature of the assay: Antiproliferative activity, CCK-8 cell viability. The following applies: Homo sapiens, 72 h, read-out: Inhibition of Cancerous Cells, HepG2; for inhibition at 3.3 µM: compound concentration of 3.3 μM; for inhibition at 10 µM: compound concentration of 10 μM; for inhibition at 30 µM: compound concentration of 30 μM. In outline: as §1

The subject of assay [3] is A431 (epidermoid carcinoma). Nature of the assay: Antiproliferative activity, CCK-8 cell viability. The conditions noted are these: Homo sapiens, A-431, 72 h, read-out: Inhibition of Cancerous Cells, A431; for inhibition at 3.3 µM: compound concentration of 3.3 μM; for inhibition at 10 µM: compound concentration of 10 μM; for inhibition at 30 µM: compound concentration of 30 μM. In outline: as §1

For assay [4], the system named is B16F10 (malignant melanoma). Description: Antiproliferative activity, CCK-8 cell viability. The conditions noted are these: Mus musculus, B16-F10, 72 h, read-out: Inhibition of Cancerous Cells, B16F10; for inhibition at 3.3 µM: compound concentration of 3.3 μM; for inhibition at 10 µM: compound concentration of 10 μM; for inhibition at 30 µM: compound concentration of 30 μM. The method, boiled down: as §1

The next assay relates to SW480 (colon cancer). Description: Antiproliferative activity, CCK-8 cell viability. The conditions noted are these: Homo sapiens, 72 h, read-out: Inhibition of Cancerous Cells, SW480; for inhibition at 3.3 µM: compound concentration of 3.3 μM; for inhibition at 10 µM: compound concentration of 10 μM; for inhibition at 30 µM: compound concentration of 30 μM. The method, boiled down:
as §1

A further assay has as its system HeLa (cervical cancer). Nature of the assay: Antiproliferative activity, CCK-8 cell viability. The following applies: Homo sapiens, 72 h, read-out: Inhibition of Cancerous Cells, HELA; for inhibition at 3.3 µM: compound concentration of 3.3 μM; for inhibition at 10 µM: compound concentration of 10 μM; for inhibition at 30 µM: compound concentration of 30 μM.
The subject of assay [5] is alpha-smooth muscle actin (α-SMA). Description: Inhibition of TGF-β induced expression of alpha-smooth muscle actin in CFSC cells (western blot). The conditions noted are these: compound at 10 μM, TGF-β (10 ng/mL), 24 hours. In outline: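 Rat CCl4-treated hepatic stellate (CFSC) cells in serum-free DMEM were given compound at 10 μM plus TGF-β 10 ng/mL for 24 h at 37 °C. α-SMA measured by western blot with β-actin, bands quantified densitometrically. Percent inhibition is the decrease in band intensity versus TGF-β alone.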
A general note: A western blot detects proteins with antibodies after separation by electrophoresis.

Bounds are passed on as bounds.

For the compound `CC1=C(CC(=O)N(C)O)c2cc(F)ccc2/C1=C\c1ccc(Oc2ccccc2)cc1` [Compound B1, 2-[(1Z)-5-Fluoro-2-methyl-1-[(4-phenoxyphenyl)methylidene]-1H-inden-3-yl]-N-hydroxy-N-methylacetamide], the inhibition – broadly, how much of the control response was suppressed – at 3.3 µM in assay [1] was ≥ 50%; in assay [2] it was ≥ 50%; with HepG2 (liver cancer), < 30%; in assay [3], ≥ 50%; in assay [4] it was ≥ 50%; in the assay with SW480 (colon cancer), ≥ 50%. Besides, the inhibition at 3.3 µM in the assay with HeLa (cervical cancer) fell in the range of 30 to 50%. In addition, the inhibition at 10 µM is ≥ 50% in assay [1]; ≥ 50% in assay [2]; 30 to 50% in the assay with HepG2 (liver cancer); ≥ 50% in assay [3]; ≥ 50% in assay [4]; ≥ 50% in the assay with SW480 (colon cancer). Further, the inhibition at 10 µM in the assay with HeLa (cervical cancer) was ≥ 50%; in assay [5], 50 to 80%. Also, the inhibition at 30 µM (in assay [1]; in assay [2]; in the assay with HepG2 (liver cancer); in assay [3]; in assay [4]; in the assay with SW480 (colon cancer)) was ≥ 50% in each case. In the assay on HeLa (cervical cancer), the inhibition at 30 µM is ≥ 50%.
Consider `COc1ccc(Oc2cccc(/C=C3/C(C)=C(CC(=O)O)c4cc(F)ccc43)c2)cc1` [Compound D22, 2-[(1Z)-5-Fluoro-2-methyl-1-({3-[4-methoxyphenoxy]phenyl}methylidene)-1H-inden-3-yl]acetic acid], for which the inhibition at 3.3 µM in assay [1] was ≥ 50%; in assay [2] it was 30 to 50%; in the assay with HepG2 (liver cancer), < 30%; in assay [3], < 30%; in assay [4], < 30%; with SW480 (colon cancer), < 30%. Moreover, in the assay with HeLa (cervical cancer), the inhibition at 3.3 µM lay within 30 to 50%. Also, the inhibition at 10 µM in assay [1] is ≥ 50%; in assay [2], 30 to 50%; with HepG2 (liver cancer), 30 to 50%; in assay [3], < 30%; in assay [4], ≥ 50%; with SW480 (colon cancer) it was 30 to 50%. Besides, the figures for the inhibition at 10 µM (with HeLa (cervical cancer); in assay [5]) were ≥ 50% and ≥ 80%, respectively. Moreover, the inhibition at 30 µM (in assay [1]; in assay [2]; in the assay on HepG2 (liver cancer); in assay [3]; in assay [4]; in the assay on SW480 (colon cancer)) was ≥ 50% each time. In addition, the inhibition at 30 µM with HeLa (cervical cancer) is ≥ 50%.
With `COc1ccc2c(c1)/C(=C\c1ccc(CN(C)c3ccccc3)cc1)C(C)=C2CC(=O)O` [Compound A13, 2-[(1Z)-6-Methoxy-2-methyl-1-[(4-{[methyl(phenyl)amino]methyl}phenyl)-methylidene]-1H-inden-3-yl]acetic acid], the inhibition at 3.3 µM in assay [1] is < 30%; in assay [2], 30 to 50%; in the assay on HepG2 (liver cancer), ≥ 50%; in assay [3] it was ≥ 50%; in assay [4], < 30%; with SW480 (colon cancer), ≥ 50%. Further, the inhibition at 3.3 µM in the assay on HeLa (cervical cancer) was < 30%. For the same compound, the inhibition at 10 µM in assay [1] is 30 to 50%; in assay [2], 30 to 50%; in the assay on HepG2 (liver cancer), ≥ 50%; in assay [3] it was ≥ 50%; in assay [4], 30 to 50%; in the assay on SW480 (colon cancer) it was 30 to 50%. In addition, the inhibition at 10 µM was 30 to 50% in the assay on HeLa (cervical cancer) and ≥ 80% in assay [5]. Moreover, the inhibition at 30 µM (in assay [1]; in assay [2]; in the assay on HepG2 (liver cancer); in assay [3]; in assay [4]; with SW480 (colon cancer)) was ≥ 50% in each case. Moreover, the inhibition at 30 µM with HeLa (cervical cancer) is ≥ 50%.
With `CC1=C(CC(=O)O)c2cc(F)ccc2/C1=C\c1cccc(COc2ccccc2)c1` [Compound A5, (Z)-2-(5-Fluoro-2-methyl-1-(3-(phenoxymethyl)benzylidene)-1H-inden-3-yl)acetic acid], the inhibition at 3.3 µM in assay [1] is ≥ 50%; in assay [2], 30 to 50%; in the assay with HepG2 (liver cancer), ≥ 50%; in assay [3], < 30%; in assay [4], < 30%; in the assay on SW480 (colon cancer), ≥ 50%. The inhibition at 3.3 µM in the assay with HeLa (cervical cancer) was < 30%. Moreover, the inhibition at 10 µM in assay [1] is ≥ 50%; in assay [2], 30 to 50%; in the assay with HepG2 (liver cancer), ≥ 50%; in assay [3], 30 to 50%; in assay [4], 30 to 50%; in the assay on SW480 (colon cancer), ≥ 50%. Besides, the inhibition at 10 µM is 30 to 50% in the assay on HeLa (cervical cancer) and ≥ 80% in assay [5]. In addition, the inhibition at 30 µM (in assay [1]; in assay [2]; with HepG2 (liver cancer); in assay [3]; in assay [4]; with SW480 (colon cancer)) was ≥ 50% throughout. The inhibition at 30 µM with HeLa (cervical cancer) was ≥ 50%.
As to `CC1=C(CC(=O)O)c2cc(F)ccc2/C1=C\c1cccc(Oc2ccc(Cl)cc2)c1` [Compound D25, 2-[(1Z)-5-Fluoro-2-methyl-1-({3-[4-chlorophenoxy]phenyl}methylidene)-1H-inden-3-yl]acetic acid], the inhibition at 3.3 µM in assay [1] was ≥ 50%; in assay [2] it was < 30%; in the assay on HepG2 (liver cancer), 30 to 50%; in assay [3], < 30%; in assay [4] it was 30 to 50%; in the assay on SW480 (colon cancer) it was ≥ 50%. In the assay with HeLa (cervical cancer), the inhibition at 3.3 µM was in the range of 30 to 50%. The inhibition at 10 µM in assay [1] is ≥ 50%; in assay [2], 30 to 50%; in the assay on HepG2 (liver cancer), ≥ 50%; in assay [3], < 30%; in assay [4], ≥ 50%; with SW480 (colon cancer), ≥ 50%. For the same compound, the inhibition at 10 µM was ≥ 50% in the assay on HeLa (cervical cancer) and ≥ 80% in assay [5]. For the same compound, the inhibition at 30 µM (in assay [1]; in assay [2]; in the assay on HepG2 (liver cancer); in assay [3]; in assay [4]; in the assay on SW480 (colon cancer)) was ≥ 50% in each case. Further, in the assay on HeLa (cervical cancer), the inhibition at 30 µM is ≥ 50%.
Regarding `CC1=C(CC(=O)O)c2cc(F)ccc2/C1=C\c1ccc(CCc2ccccc2)cc1` [Compound A8, 2-[(1Z)-5-Fluoro-2-methyl-1-{[4-(2-phenylethyl)phenyl]methylidene}-1H-inden-3-yl]acetic acid], the inhibition at 3.3 µM in assay [1] was 30 to 50%; in assay [2], < 30%; in the assay with HepG2 (liver cancer), 30 to 50%; in assay [3], 30 to 50%; in assay [4], < 30%; with SW480 (colon cancer), 30 to 50%. In addition, the inhibition at 3.3 µM with HeLa (cervical cancer) is < 30%. Besides, the inhibition at 10 µM in assay [1] is ≥ 50%; in assay [2], ≥ 50%; in the assay on HepG2 (liver cancer) it was 30 to 50%; in assay [3] it was ≥ 50%; in assay [4], < 30%; with SW480 (colon cancer), ≥ 50%. Besides, the inhibition at 10 µM was < 30% in the assay on HeLa (cervical cancer) and ≥ 80% in assay [5]. For the same compound, the inhibition at 30 µM (in assay [1]; in assay [2]; in the assay with HepG2 (liver cancer); in assay [3]; in assay [4]; in the assay on SW480 (colon cancer)) was ≥ 50% each time. The inhibition at 30 µM in the assay with HeLa (cervical cancer) is ≥ 50%.
